Where “and” joins values, the source holds several entries; their conditions need not be identical. Equal entries are not always repeated.
Assays:
Assay in all cases: KINOMEscan competition binding
Conditions in all cases: compound 10.0 µM
[1] = target: CaMK1 (human) (UniProt Q14012)
[2] = target: RPS6KA3 KD1 (human) (UniProt P51812)
[3] = target: MAP3K4 (human) (UniProt Q9Y6R4)
[4] = target: TGFBR1 (human) (UniProt P36897)
[5] = target: MAP3K1 (human) (UniProt Q13233)
[6] = target: CHEK2 (human) (UniProt O96017)
[7] = target: STK17A (human) (UniProt Q9UEE5)
[8] = target: IKBKB (human) (UniProt O14920)
IKBKB (human), sequence (O14920 whole entry, looked up): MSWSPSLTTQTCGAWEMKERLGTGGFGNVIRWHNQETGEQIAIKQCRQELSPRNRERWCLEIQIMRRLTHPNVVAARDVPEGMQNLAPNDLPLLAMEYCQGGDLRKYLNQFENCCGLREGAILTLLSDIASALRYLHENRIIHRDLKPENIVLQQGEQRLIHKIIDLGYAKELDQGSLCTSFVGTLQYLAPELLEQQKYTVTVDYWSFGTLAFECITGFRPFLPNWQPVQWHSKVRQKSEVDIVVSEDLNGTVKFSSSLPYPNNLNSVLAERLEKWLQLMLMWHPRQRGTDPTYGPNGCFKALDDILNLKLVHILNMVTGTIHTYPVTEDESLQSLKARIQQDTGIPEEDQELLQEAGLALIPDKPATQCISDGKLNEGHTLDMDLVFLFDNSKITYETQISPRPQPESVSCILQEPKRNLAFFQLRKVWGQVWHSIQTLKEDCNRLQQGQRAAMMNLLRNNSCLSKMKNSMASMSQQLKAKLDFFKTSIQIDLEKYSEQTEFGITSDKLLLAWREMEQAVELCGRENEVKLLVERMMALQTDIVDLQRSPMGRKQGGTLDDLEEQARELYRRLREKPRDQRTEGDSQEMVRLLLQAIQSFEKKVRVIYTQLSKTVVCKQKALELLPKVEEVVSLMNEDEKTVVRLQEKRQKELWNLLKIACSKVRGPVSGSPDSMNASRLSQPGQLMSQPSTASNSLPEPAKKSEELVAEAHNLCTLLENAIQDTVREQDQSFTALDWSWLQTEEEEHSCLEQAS

[9] = target: RPS6KA6 KD2 (human) (UniProt Q9UK32)
[10] = target: MKNK1 (human) (UniProt Q9BUB5)
[11] = target: EPHA2 (human) (UniProt P29317)
[12] = target: ANKK1 (human) (UniProt Q8NFD2)
[13] = target: PRKG2 (human) (UniProt Q13237)
[14] = target: NTRK3 (human) (UniProt Q16288)
[15] = target: MAPK13 (human) (UniProt O15264)
[16] = target: TGFBR2 (human) (UniProt P37173)
[17] = target: PRKG1 (human) (UniProt Q13976)
[18] = target: NEK1 (human) (UniProt Q96PY6)
[19] = target: RPS6KA5 KD1 (human) (UniProt O75582)
RPS6KA5 KD1 (human), sequence (O75582 whole entry, looked up): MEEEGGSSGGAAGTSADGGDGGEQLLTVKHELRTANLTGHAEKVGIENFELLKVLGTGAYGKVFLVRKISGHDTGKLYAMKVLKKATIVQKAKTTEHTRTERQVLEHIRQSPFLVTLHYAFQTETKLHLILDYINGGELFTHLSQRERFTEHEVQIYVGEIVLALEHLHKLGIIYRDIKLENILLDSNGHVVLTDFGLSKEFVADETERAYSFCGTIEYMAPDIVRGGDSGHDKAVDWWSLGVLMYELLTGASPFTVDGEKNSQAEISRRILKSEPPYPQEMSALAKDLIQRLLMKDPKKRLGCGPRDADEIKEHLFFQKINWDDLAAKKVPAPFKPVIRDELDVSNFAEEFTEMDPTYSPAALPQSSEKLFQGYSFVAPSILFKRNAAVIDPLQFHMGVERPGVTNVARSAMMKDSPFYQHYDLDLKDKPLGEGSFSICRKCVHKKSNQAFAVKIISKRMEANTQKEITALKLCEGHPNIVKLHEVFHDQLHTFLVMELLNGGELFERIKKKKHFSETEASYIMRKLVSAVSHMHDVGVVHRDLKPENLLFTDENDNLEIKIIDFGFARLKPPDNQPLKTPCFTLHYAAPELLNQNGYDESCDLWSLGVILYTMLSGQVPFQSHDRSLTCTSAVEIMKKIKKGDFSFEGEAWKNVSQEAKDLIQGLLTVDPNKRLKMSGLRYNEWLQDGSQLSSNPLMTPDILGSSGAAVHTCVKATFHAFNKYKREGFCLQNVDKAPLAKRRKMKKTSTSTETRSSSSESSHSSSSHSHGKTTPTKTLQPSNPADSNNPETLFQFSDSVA

[20] = target: PRKACA (human) (UniProt P17612)
[21] = target: HCK (human) (UniProt P08631)
[22] = target: DAPK1 (human) (UniProt P53355)
[23] = target: PRKCH (human) (UniProt P24723)
[24] = target: RPS6KA2 KD1 (human) (UniProt Q15349)
[25] = target: PDGFRA (human) (UniProt P16234)
[26] = target: MAP4K4 (human) (UniProt O95819)
MAP4K4 (human), sequence (O95819 whole entry, looked up): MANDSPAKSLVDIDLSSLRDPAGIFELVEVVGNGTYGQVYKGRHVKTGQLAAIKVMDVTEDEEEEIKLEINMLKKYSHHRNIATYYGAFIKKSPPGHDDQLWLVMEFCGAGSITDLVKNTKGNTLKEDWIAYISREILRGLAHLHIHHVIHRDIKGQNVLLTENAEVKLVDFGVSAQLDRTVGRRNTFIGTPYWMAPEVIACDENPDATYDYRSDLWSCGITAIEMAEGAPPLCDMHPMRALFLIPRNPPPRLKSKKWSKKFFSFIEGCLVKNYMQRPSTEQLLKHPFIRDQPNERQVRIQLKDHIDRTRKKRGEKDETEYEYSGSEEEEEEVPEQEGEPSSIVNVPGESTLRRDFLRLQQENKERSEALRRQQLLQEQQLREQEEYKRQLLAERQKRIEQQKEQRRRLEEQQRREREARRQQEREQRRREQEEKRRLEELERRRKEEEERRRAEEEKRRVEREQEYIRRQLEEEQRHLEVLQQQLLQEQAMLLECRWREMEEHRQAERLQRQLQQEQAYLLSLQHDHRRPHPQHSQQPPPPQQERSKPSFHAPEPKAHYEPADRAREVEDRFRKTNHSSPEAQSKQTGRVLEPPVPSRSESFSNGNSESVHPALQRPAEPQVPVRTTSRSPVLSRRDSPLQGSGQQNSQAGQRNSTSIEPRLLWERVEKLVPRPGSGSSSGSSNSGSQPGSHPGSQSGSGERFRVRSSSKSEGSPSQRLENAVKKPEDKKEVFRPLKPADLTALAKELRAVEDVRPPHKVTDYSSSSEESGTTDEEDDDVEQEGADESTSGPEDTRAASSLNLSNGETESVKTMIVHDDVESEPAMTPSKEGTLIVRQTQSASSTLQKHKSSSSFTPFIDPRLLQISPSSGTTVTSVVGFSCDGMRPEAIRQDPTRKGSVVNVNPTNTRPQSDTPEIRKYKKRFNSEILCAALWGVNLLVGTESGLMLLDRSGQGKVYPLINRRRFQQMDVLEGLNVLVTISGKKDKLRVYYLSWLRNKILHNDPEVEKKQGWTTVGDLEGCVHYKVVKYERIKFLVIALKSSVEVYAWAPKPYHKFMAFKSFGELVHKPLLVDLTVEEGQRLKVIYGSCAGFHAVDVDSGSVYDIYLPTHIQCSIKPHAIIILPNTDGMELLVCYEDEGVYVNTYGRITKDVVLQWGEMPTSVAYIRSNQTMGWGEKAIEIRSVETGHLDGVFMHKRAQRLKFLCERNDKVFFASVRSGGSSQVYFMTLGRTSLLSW

[27] = target: PIK3C2B (human) (UniProt O00750)
[28] = target: RIOK2 (human) (UniProt Q9BVS4)
RIOK2 (human), sequence (Q9BVS4 whole entry, looked up): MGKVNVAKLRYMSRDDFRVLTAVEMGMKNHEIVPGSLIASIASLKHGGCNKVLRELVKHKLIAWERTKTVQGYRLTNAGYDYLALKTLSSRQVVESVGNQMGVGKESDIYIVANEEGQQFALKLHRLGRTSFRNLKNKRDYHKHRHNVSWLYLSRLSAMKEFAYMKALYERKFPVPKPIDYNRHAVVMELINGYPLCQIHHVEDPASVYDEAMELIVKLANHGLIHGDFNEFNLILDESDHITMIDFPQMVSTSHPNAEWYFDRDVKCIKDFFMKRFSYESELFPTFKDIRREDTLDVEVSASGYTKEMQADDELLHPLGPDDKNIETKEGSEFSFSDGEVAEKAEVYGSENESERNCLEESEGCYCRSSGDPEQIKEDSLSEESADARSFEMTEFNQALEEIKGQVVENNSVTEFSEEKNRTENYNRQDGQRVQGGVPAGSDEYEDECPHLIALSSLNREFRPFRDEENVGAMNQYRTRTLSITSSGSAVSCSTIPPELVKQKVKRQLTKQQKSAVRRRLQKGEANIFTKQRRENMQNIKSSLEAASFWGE

[29] = target: WEE2 (human) (UniProt P0C1S8)
[30] = target: MAP3K3 (human) (UniProt Q99759)
[31] = target: TAOK3 (human) (UniProt Q9H2K8)
[32] = target: CDK8 (human) (UniProt P49336)
[33] = target: SRPK2 (human) (UniProt P78362)
[34] = target: SIK2 (human) (UniProt Q9H0K1)
[35] = target: FLT1 (human) (UniProt P17948)
[36] = target: CDK15 (human) (UniProt Q96Q40)
[37] = target: TLK1 (human) (UniProt Q9UKI8)
TLK1 (human), sequence (Q9UKI8 whole entry, looked up): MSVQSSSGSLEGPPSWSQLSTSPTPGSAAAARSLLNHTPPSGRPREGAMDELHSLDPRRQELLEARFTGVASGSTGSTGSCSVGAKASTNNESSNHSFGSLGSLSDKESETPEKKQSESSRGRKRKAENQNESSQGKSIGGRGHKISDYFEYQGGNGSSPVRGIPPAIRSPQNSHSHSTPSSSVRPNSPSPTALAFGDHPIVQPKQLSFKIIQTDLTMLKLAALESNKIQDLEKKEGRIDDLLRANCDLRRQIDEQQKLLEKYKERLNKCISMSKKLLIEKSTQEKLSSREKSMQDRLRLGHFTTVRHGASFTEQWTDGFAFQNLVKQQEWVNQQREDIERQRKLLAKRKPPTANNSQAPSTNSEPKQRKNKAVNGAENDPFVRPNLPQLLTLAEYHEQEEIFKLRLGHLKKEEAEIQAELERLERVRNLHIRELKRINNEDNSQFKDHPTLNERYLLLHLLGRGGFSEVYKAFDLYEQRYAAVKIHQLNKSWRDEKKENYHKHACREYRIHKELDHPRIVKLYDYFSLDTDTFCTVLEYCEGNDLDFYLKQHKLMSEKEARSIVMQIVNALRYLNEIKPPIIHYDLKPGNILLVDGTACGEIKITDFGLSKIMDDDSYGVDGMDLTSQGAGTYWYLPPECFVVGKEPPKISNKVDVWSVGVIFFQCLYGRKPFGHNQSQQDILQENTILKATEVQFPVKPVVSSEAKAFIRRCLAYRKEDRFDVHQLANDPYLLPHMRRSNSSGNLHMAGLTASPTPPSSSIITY

[38] = target: NUAK2 (human) (UniProt Q9H093)
[39] = target: FGR (human) (UniProt P09769)
[40] = target: CSNK2A1 (human) (UniProt P68400)

CaMK1 (human), sequence (Q14012 whole entry, looked up): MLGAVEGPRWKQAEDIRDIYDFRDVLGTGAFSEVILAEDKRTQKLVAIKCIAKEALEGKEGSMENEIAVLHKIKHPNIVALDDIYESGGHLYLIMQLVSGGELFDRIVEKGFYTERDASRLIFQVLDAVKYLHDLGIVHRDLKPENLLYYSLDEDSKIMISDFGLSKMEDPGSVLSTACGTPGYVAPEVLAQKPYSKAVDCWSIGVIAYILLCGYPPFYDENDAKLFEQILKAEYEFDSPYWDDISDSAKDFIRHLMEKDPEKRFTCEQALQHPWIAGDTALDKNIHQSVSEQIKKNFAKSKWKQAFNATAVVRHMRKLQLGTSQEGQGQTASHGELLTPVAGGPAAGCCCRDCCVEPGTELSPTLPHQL
TGFBR1 (human), sequence (P36897 whole entry, looked up): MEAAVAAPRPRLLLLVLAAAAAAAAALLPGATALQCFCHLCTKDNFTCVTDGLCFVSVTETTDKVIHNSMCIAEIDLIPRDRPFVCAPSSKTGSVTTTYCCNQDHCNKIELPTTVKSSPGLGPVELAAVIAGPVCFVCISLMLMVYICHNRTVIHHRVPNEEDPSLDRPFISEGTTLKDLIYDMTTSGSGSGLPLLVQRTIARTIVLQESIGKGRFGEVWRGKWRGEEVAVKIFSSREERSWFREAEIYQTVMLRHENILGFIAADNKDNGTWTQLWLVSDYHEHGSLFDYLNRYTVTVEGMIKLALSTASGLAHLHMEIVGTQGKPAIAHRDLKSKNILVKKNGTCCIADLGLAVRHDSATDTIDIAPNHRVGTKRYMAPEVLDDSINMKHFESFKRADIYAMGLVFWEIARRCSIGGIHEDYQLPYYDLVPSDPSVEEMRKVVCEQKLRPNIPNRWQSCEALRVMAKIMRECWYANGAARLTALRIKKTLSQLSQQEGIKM

Row | SMILES | kinase still bound, per cent of control [1] [%] | kinase still bound, per cent of control [2] [%] | kinase still bound, per cent of control [3] [%] | kinase still bound, per cent of control [4] [%] | kinase still bound, per cent of control [5] [%] | kinase still bound, per cent of control [6] [%] | kinase still bound, per cent of control [7] [%] | kinase still bound, per cent of control [8] [%] | kinase still bound, per cent of control [9] [%] | kinase still bound, per cent of control [10] [%] | kinase still bound, per cent of control [11] [%] | kinase still bound, per cent of control [12] [%] | kinase still bound, per cent of control [13] [%] | kinase still bound, per cent of control [14] [%] | kinase still bound, per cent of control [15] [%] | kinase still bound, per cent of control [16] [%] | kinase still bound, per cent of control [17] [%] | kinase still bound, per cent of control [18] [%] | kinase still bound, per cent of control [19] [%] | kinase still bound, per cent of control [20] [%] | further results
1 | COc1cc2ncnc(-n3nc(-c4ccccn4)nc3N)c2cc1OC | 31 | 2.8 | 100 | 14 | 66 | 78 | 1.6 | 45 | 6.2 | 51 | 27 | 12 | 75 | 100 | 100 | 9 | 100 | 36 | 84 | 100 | kinase still bound, per cent of control [21]: 12%; kinase still bound, per cent of control [22]: 3.6%; kinase still bound, per cent of control [23]: 100%; kinase still bound, per cent of control [24]: 76%; kinase still bound, per cent of control [25]: 57%; kinase still bound, per cent of control [26]: 69%; kinase still bound, per cent of control [27]: 0.35%; kinase still bound, per cent of control [28]: 2%; kinase still bound, per cent of control [29]: 100%; kinase still bound, per cent of control [30]: 48%; kinase still bound, per cent of control [31]: 39%; kinase still bound, per cent of control [32]: 100%; kinase still bound, per cent of control [33]: 88%; kinase still bound, per cent of control [34]: 61%; kinase still bound, per cent of control [35]: 48%; kinase still bound, per cent of control [36]: 88%; kinase still bound, per cent of control [37]: 46%; kinase still bound, per cent of control [38]: 37%; kinase still bound, per cent of control [39]: 36%; kinase still bound, per cent of control [40]: 4.4%
2 | CCN1CCN(C(=O)Cc2ccc(Nc3ncc(F)c(Nc4ccc(C(=O)Nc5ccccc5Cl)cc4)n3)cc2)CC1 | 14 | 32 | 83 | 57 | 97 | 70 | 2.6 | 27 | 62 | 100 | 51 | 36 | 62 | 78 | 100 | 100 | 100 | 17 | 100 | 42 | kinase still bound, per cent of control [21]: 84%; kinase still bound, per cent of control [22]: 3.8%; kinase still bound, per cent of control [23]: 100%; kinase still bound, per cent of control [24]: 65%; kinase still bound, per cent of control [25]: 38%; kinase still bound, per cent of control [26]: 69%; kinase still bound, per cent of control [27]: 93%; kinase still bound, per cent of control [28]: 17%; kinase still bound, per cent of control [29]: 12%; kinase still bound, per cent of control [30]: 49%; kinase still bound, per cent of control [31]: 69%; kinase still bound, per cent of control [32]: 46%; kinase still bound, per cent of control [33]: 11%; kinase still bound, per cent of control [34]: 20%; kinase still bound, per cent of control [35]: 9.6%; kinase still bound, per cent of control [36]: 64%; kinase still bound, per cent of control [37]: 19%; kinase still bound, per cent of control [38]: 23%; kinase still bound, per cent of control [39]: 43%; kinase still bound, per cent of control [40]: 18%
3 | O=C1NC(=O)/C(=C/c2ccc3nccc(-c4ccncc4)c3c2)S1 | 65 | 41 | 96 | 20 | 60 | 57 | 0.2 | 34 | 5.2 | 84 | 95 | 47 | 56 | 68 | 100 | 73 | 75 | 47 | 100 | 35 | kinase still bound, per cent of control [21]: 75%; kinase still bound, per cent of control [22]: 6.4%; kinase still bound, per cent of control [23]: 88%; kinase still bound, per cent of control [24]: 100%; kinase still bound, per cent of control [25]: 67%; kinase still bound, per cent of control [26]: 41% and 47%; kinase still bound, per cent of control [27]: 0.15%; kinase still bound, per cent of control [28]: 37%; kinase still bound, per cent of control [29]: 95%; kinase still bound, per cent of control [30]: 75%; kinase still bound, per cent of control [31]: 13%; kinase still bound, per cent of control [32]: 7.3%; kinase still bound, per cent of control [33]: 86%; kinase still bound, per cent of control [34]: 100%; kinase still bound, per cent of control [35]: 73%; kinase still bound, per cent of control [36]: 9.6%; kinase still bound, per cent of control [37]: 81%; kinase still bound, per cent of control [38]: 36%; kinase still bound, per cent of control [39]: 69%; kinase still bound, per cent of control [40]: 7.9%
